Test results published in EP3064205A1, “Therapeutic use of isomeric forms of 2-(4-chlorophenyl)quinolin-4-yl)(piperidin-2-yl)methanol” (Glionova AB, priority 2015, dated 2016).
pIC50: −log10 of the molar value. “Also recorded” adds a separate entry of the source. Read-outs that look alike come from different tables or passages of the source. One block for each molecule: values may come before it.

How the values were obtained:
[1] = tested on: glioblastoma cell line U3013; test: ATP viability assay (CellTiter-Glo); format: cell-based, human; details: U3013, dose response, CellTiterGlo ATP quantification
Protocol: (§1) The human melanoma cell line SK-MEL-28 is a well established reference cell line in melanoma research (Goodfellow M, et al. J. Natl. Cancer Inst. 59: 221-226, 1977). Cells were cultured in MEM supplemented with 10% FCS. Glioblastoma cell line (U3013) was generated directly from patient-derived tumors (Kitambi et al. Cell. 2014: 157(2):313-28) and grown in serum-free media supplemented with N2, B27, EGF, and FGF-2 (20 ng/ml) using previously described methodology (Pollard et al., 2009).
Culture plates were pre-coated with laminin (Sigma) for 3 hr at 10 ug/ml prior to use and confluent cells were split 1:3 to 1:5 using TrypLE Express (Invitrogen).
(§2) Viability assay was conducted in 96 well microtiter plates seeded with 3000 cells. Cell viability was measured using CellTiter-Glo assay (Promega), according to the manufacturer's instructions. Luminescence was measured using Victor3 FA (Perkin Elmer) microtiter plate reader. Total luminescence was normalized relative to negative control and curve fitting performed using GraphPad Prism (v6.02) software. IC50 was determined using Cell Viability assay, and data was illustrated using GraphPad Prism (version 6.02)

[2] = tested on: Panc-1 cells; test: Vacuolization, bright field microscopy; format: cell-based, human; details: Panc-1, 5µM or 10µM, 18h
Description: The following well-characterized human pancreatic ductal adenocarcinoma cell lines (ATCC) were used: HPAF II, BxPC-3, MIA-PaCa2 and Panc-1. These cell lines were generated from patient-derived tumors and are widely used model system to study pancreatic cancer (HPAF II: Kim YW, et al. Pancreas 4: 353-362, 1989; BxPC-3: Tan MH, et al. Cancer Invest. 4: 15-23, 1986; MIA-PaCa2: Yunis AA, et al. Int. J. Cancer 19: 128-135, 1977; Pacn-1: Lieber M, et al. Int. J. Cancer 15: 741-747, 1975).
(§3) Cells were plated on glass slides and were treated with compound at the indicated concentrations for 18h before imaging. Digital images were taken using a Veleta camera (Olympus Soft Imaging Solutions).

[3] = tested on: SK-Mel-28 cells; test: Long term toxicity (viability assay up to 25 days); format: cell-based, human
Protocol: as §2
(§4) SK-Mel-28 and Panc-1 cells were plated on 96 well plates. Three hours post-seeding, cells were treated with 10 µM, 1 µM, 0.1 µM and 0.01 µM of S2 or vehicle (DMSO). Viability assay was conducted after 24 h, 72 h, 5 days, 10 days, 15 days, 20 days and 25 days, as described above. Media was changed every two days. […] Cell viability at each concentration was quantified relative to DMSO control at any time point (each time point had its own control), and was presented as fraction of control. Each treatment and the adequate control and was performed in 3, 4 and 6 repeats. Error bars indicate standard error (SE).
as §4, with “Vacquionol-1 SR (S2)” for “S2”

[4] = tested on: Panc-1 cells; test: Long term toxicity (viability assay up to 25 days); format: cell-based, human
Protocol: as §2, §4
as §4, with “Vacquionol-1 SR (S2)” for “S2”

[5] = tested on: SK-Mel-28; test: ATP viability assay (CellTiter-Glo); format: cell-based; details: Homo sapiens
Protocol: as §1, §2

[6] = tested on: KPC cells; test: Vacuolization, bright field microscopy; format: cell-based, mouse; details: 5µM (3.3 µM elsewhere in the source) or 10µM, 18h
Protocol: as §3

[7] = Pharmacokinetic evaluation in mice (plasma and brain); format: in vivo, male NMRI mice; details: for Kp / Tmax / Cmax: male, NMRI, mouse; for Kp: brain/plasma, single oral administration of 20 mg/kg
Protocol: Compounds S1 and S2 were formulated at 0.4 mg/mL in 7.5% NMP, 10% Kolliphor in 0.9% NaCl (for i.v. administration) and at 2.0 mg/mL in 0.1% Tween 80, 0.5% Na-CMC in water (for p.o. administration).
The pharmacokinetic properties of S1 and S2 were determined in male NMRI mice (Charles River, Germany) following single intravenous (i.v., tail vein, 2 mg/kg) or per oral (p.o, gavage, 20 mg/kg). Light isoflurane anaesthesia was used at i.v. administration, no anaesthesia was used at p.o. administration. Blood samples were kept on ice after sampling and centrigued at +4 °C, 1800 x g for 5 minutes to prepare plasma. Blood and homogenized brain samples were taken from animals at the following nominal time points: 15, 30, and 60 minutes, and 2, 4, 6, 8, 24, 48, 72 and 144 hours after dosing (n=3 samples/time-point). Blood sampling (400-600 microliters) was performed by orbital plexus collection under isoflurane anaesthesia into EDTA plasma tubes (BD Microtainer K2EDTA). Bioanalytical quantification of S1 and S2 was analysed in plasma and brain samples by a UPLC-MS/MS. Pharmacokinetics were calculated by non-compartmental analysis (NCA) from composite (mean) profiles using Phoenix WinNonlin Professional (v 6.3). Nominal sampling times and dose levels have been used for the NCA calculations. All animals dosed with S1 and S2 were systemically exposed to the test compound. The plasma and brain concentrations were detectable and analysed until 144 h.
Brain sampling was performed after the end of blood sampling at the specified time points following euthanization and skull extraction. Brains were weighed and placed in test tubes and placed on wet ice. 4 mL PBS (pH 7.4) per 1 g of brain tissue was added to the test tube and brains were then homogenized using an Ultra-Turrax T25 homogenisator (Setting 2, 9500 rpm, 10s). The homogenates were frozen at -20° C immediately after homogenization.

[8] = tested on: SK-Mel-28 cells; test: Vacuolization, bright field microscopy; format: cell-based, human; details: SK-Mel-28, 5µM or 10µM, 18h
Protocol: as §1, §3

pIC50 ([5]; SK-MEL-28, 24 h): 5.44
pIC50 ([5]; SK-MEL-28, 48 h): 5.62
pIC50 ([5]; SK-MEL-28, 72 h): 5.68
Brain AUC last ([7]; brain, i.v., 2 mg/kg): 9050 ng·h/mL
Brain Cmax ([7]; brain, i.v., 2 mg/kg): 777 ng/mL
Brain tlast ([7]; brain, i.v., 2 mg/kg): 72 h
Brain AUC last ([7]; brain, p.o., 20 mg/kg): 157000 ng·h/mL
Brain Cmax ([7]; brain, p.o., 20 mg/kg): 1490 ng/mL
Brain tlast ([7]; brain, p.o., 20 mg/kg): 144 h
Kp ([7]; po, 20 mg/kg, read-out: exposure ratio AUC(brain/plasma)): 0.9
Kp ([7]; po, 20 mg/kg, read-out: exposure ratio Cmax(brain/plasma)): 0.7
Tmax ([7]; iv, brain, i.v., 2 mg/kg, read-out: Brain tmax): 1 h
Cmax ([7]; iv, plasma, 2 mg/kg): 455 ng/mL
Tmax ([7]; iv, plasma, i.v., 2 mg/kg, read-out: Plasma tmax): 0.5 h
Tmax ([7]; po, brain, p.o., 20 mg/kg, read-out: Brain tmax): 6 h
Cmax ([7]; po, plasma, 20 mg/kg): 2050 ng/mL
Tmax ([7]; po, plasma, p.o., 20 mg/kg, read-out: Plasma tmax): 8 h
Plasma AUC last ([7]; plasma, i.v., 2 mg/kg): 14100 ng·h/mL
Plasma tlast ([7]; plasma, i.v., 2 mg/kg): 72 h
Plasma AUC last ([7]; plasma, p.o., 20 mg/kg): 183000 ng·h/mL
Plasma tlast ([7]; plasma, p.o., 20 mg/kg): 144 h
Structure (SMILES): O[C@@H](c1cc(-c2ccc(Cl)cc2)nc2ccccc12)[C@H]1CCCCN1 [S2, (S)-(2-(4-chlorophenyl)quinolin-4-yl)((R)-piperidin-2-yl)methanol]
in vitro cytotoxicity, comparison of isolated isomers [1]: S1 and S2 exhibit greater in vitro oncolytic potency than the corresponding S3 and S4 isomers; also recorded: S1 and S2 exhibit higher cytotoxicity on cancer cells than S3 and S4
vacuole formation [2]: stimulate vacuole formation
vacuole formation ([2]; listed as Vacquinol-1 SR (S2)): stimulates vacuole formation
long term toxicity ([3]; SK-Mel-28, 10, 1, 0.1, 0.01 µM, up to 25 days): dose-dependent cytotoxic effect
long term toxicity, lower concentrations ([3]; SK-Mel-28, long term exposure of lower concentrations): complete death of the cells
long term toxicity ([4]; Panc-1, 10, 1, 0.1, 0.01 µM, up to 25 days): dose-dependent cytotoxic effect
long term toxicity, lower concentrations ([4]; Panc-1, long term exposure, 1µM): complete death
vacuole formation [6]: stimulate vacuole formation
vacuole formation ([6]; listed as Vacquinol-1 SR (S2)): stimulates vacuole formation
vacuole formation [8]: stimulate vacuole formation
vacuole formation ([8]; listed as Vacquinol-1 SR (S2)): stimulates vacuole formation

Structure (SMILES): O[C@H](c1cc(-c2ccc(Cl)cc2)nc2ccccc12)[C@H]1CCCCN1 [S3, (R)-(2-(4-chlorophenyl)quinolin-4-yl)((R)-piperidin-2-yl)methanol]
in vitro cytotoxicity, comparison of isolated isomers [1]: S1 and S2 exhibit greater in vitro oncolytic potency than the corresponding S3 and S4 isomers; also recorded: S1 and S2 exhibit higher cytotoxicity on cancer cells than S3 and S4

Structure (SMILES): O[C@@H](c1cc(-c2ccc(Cl)cc2)nc2ccccc12)[C@@H]1CCCCN1 [S4, (S)-(2-(4-chlorophenyl)quinolin-4-yl)((S)-piperidin-2-yl)methanol]
in vitro cytotoxicity, comparison of isolated isomers [1]: S1 and S2 exhibit greater in vitro oncolytic potency than the corresponding S3 and S4 isomers; also recorded: S1 and S2 exhibit higher cytotoxicity on cancer cells than S3 and S4
